According to patent US9012420B2, “Aptamer for chymase, and use thereof” (Ribomic Inc., priority 2009, dated 2015):
Oligonucleotides are written 5' to 3', each unit as a sugar letter and its base; * is a phosphorothioate linkage, no mark a phosphodiester; rarer units and linkages stand in square brackets, end groups in braces. Plain capitals give the bases only. r = 2'-OH (RNA); f = 2'-fluoro

T1: LTBP-1 degradation by chymase (Homo sapiens, UniProt P23946)
T1 sequence (P23946 22-247): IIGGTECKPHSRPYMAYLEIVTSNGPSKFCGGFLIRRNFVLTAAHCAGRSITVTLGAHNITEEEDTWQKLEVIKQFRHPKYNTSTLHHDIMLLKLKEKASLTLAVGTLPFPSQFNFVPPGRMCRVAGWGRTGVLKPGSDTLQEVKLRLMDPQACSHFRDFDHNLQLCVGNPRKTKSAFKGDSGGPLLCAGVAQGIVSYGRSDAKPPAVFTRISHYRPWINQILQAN

T2: chymase (Homo sapiens, UniProt P23946)
T2 sequence (P23946 22-247): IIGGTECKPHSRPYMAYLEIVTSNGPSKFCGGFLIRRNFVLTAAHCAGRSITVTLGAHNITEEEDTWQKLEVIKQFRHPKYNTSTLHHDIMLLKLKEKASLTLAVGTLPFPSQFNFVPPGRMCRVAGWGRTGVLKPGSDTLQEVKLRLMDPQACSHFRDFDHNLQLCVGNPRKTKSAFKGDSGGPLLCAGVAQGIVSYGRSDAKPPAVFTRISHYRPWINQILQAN


biological target: T1, LTBP-1 degradation by chymase; test: LTBP-1 degradation inhibitory activity, NHLF culture supernatant, Western blotting; format: biochemical; design: key: +: detection of a band with the same level of density as an LTBP-1 band in the control; −: absence of detection of LTBP-1 band as clear as that of the negative control; conditions: final nucleic acid concentration 5 μM, chymase 10 ng/mL (0.33 nM), 37° C. 1 hr; visual determination of LTBP-1 band
Description: A third method of evaluation employs a native substrate contained in a cell culture supernatant. Here, degradation of chymase substrate LTBP-1 is detected by Western blotting. NHLF cells (manufactured by Cambrex Bio Science) under freezing are rapidly thawed in a 37° C. water bath, and then suspended in a medium (10% FBS/F-12). After centrifugation at 1200 rpm for 5 minutes, the resulting supernatant is removed, and the cells are re-suspended in the medium. Total volume of 10 mL medium is added to the centrifuged cells, and the cell suspension is transferred to a cell culture dish and cultured at 37° C. in the presence of 5% CO2. The cells are observed morphology and proliferation status under a microscope. When the cells become confluent, the medium is replaced with a serum-free medium (0.2% BSA/F-12). Two days after replacement of the medium, the culture supernatant is collected, dispensed, and stored under freezing at −30° C.
After 40 μL of the NHLF culture supernatant, freshly thawed before use, is dispensed to a tube, 5 μL of the nucleic acid solution diluted with solution C is added thereof. For positive control, chymostatin is diluted with solution C, and this dilution is added in the same manner. For negative control, solution C alone is added. Next, 5 μL of a 100 ng/mL dilution of chymase in solution E (solution C+0.1% BSA, 0.05% sodium azide) is added. For control, a chymase-free tube is prepared. After stirring, the sample is incubated at 37° C. for 1 hour, and mixed with an equal volume of lysis buffer for electrophoresis to terminate the reaction. LTBP-1 in the sample is detected by the procedure of Western blotting described below.
The sample mixed in the lysis buffer is boiled for 3 minutes, and 10 μL of the sample is subjected to electrophoresis on 5-20% acrylamide gel. After completion of the electrophoresis, the sample is transferred onto a nitrocellulose filter, after which the filter is blocked with 5% skimmed milk, 50 mM Tris-HCl (pH 8.0), and 0.05% sodium azide. The filter is reacted with a 2 μg/mL dilution of anti-LTBP-1 monoclonal antibody in 2% BSA, PBS, and 0.05% sodium azide at room temperature overnight. […]
As determined according to LTBP-1 band density and position (molecular weight), the band from the chymase-free well serves for positive control (+), and the band from the negative control well serves for negative control (−). […]
Chymase is deeply involved in the activation of TGF-β, which is one of the important factors causing fibrosis. […] Whether the nucleic acid of the present invention has an inhibitory activity against LTBP-1 degradation by chymase was assessed by the method shown below. […]

Molecule | inhibitory activity on LTBP-1 degradation
56 (GGGUUAGAUAGAGUUAAAAACCC; 2'-fluoro at CU, RNA at AG, backbone not given here) [compound 56] | +
58 (GGGUUGAAGAUAUUAAAGAACCC; 2'-fluoro at CU, RNA at AG, backbone not given here) [compound 58] | −
CC(C)C[C@H](NC(=O)[C@@H](NC(=O)N[C@@H](Cc1ccccc1)C(=O)O)[C@@H]1CCN=C(N)N1)C(=O)N[C@H](C=O)Cc1ccccc1 [chymostatin, reference compound] | +
GGGU(F)U(F)GAAGAU(F)AU(F)U(F)AAAGAAC(F)C(F)C(F) (GGGUUGAAGAUAUUAAAGAACCC; 2'-fluoro at CU, RNA at AG, backbone not given here) [SEQ ID NO: 58] | −

biological target: T2, chymase; test: Surface plasmon resonance (Biacore T100), aptamer immobilized on SA chip, chymase injected as analyte; format: binding; design: key: ++: a sequence that binds to chymase significantly more strongly than the negative control 40N; +: a sequence that binds to chymase equivalently compared with the negative control 40N; conditions: Table 1; about 1000 RU nucleic acid immobilized, chymase 0.2 μM analyte, running buffer solution A; compared with 40N
How it was run: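 Aptamer captured on streptavidin SA chip via 5′-biotin 16-nt poly dT (~1500 RU), and 20 μL of 0.2 μM chymase injected as analyte. Running buffer Solution A for SEQ ID NO: 4-20 and 22-34, Solution C for SEQ ID NO: 38-48. Random 30- or 40-nt RNA served as negative control.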

Molecule | Binding activity as determined using Biacore
14 (nucleic acid, aptamer) rGrGrGrAfCrGrGfUrArGrGrArAfUfUfCfUfCrGfUfUfCfCfUrGrAfCrArGfCrAfUfUfUrGrArGrAfUrArGrAfUfUfUrArArAfCrArArAfCrGfCrAfCrAfUrArGrArArGrArGfCrGrGfCfCrGfC | ++
4 (nucleic acid, aptamer) rGrGrGrAfCrGrGfUrArGrGrArAfUfUfCrGfUfCfCrAfUfUfCfUrAfCrArGrAfUrArGrArGrAfUrArArArGfUrArGrArAfUfUfUrArAfCrArArArAfCrAfUrArGrArArGrArGfCrGrGfCfCrGfC | ++
13 (nucleic acid, aptamer) rGrGrGrAfCrGrGfUrArGrGrArAfUfUfCfCrGfCrArAfCfCrAfUfCfCfCrGfUrArAfCfUrAfUrGrGfUfUrArGrAfUrArGrArGfUfUrArArArArAfCfCrAfUrArGrArArGrArGfCrGrGfCfCrGfC | ++
